From the supplement of paper PMC3974653
Where a name gives a salt, the structure may show the parent alone.

Test system: MTT (mouse pheochromocytoma)
Assay: IC50 of cell viability (ATP content)
Settings: (24 or 48 h)
Procedure, shortened: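 Each well of a white 1536-well plate received 5 µl of MTT mouse pheochromocytoma cells at 200,000 cells/ml in DMEM containing 5% FBS and 1% horse serum. After overnight culture at 37°C, 5% CO2, cells were exposed for 24 or 48 hrs to 23 nl of library compound in DMSO, pinned at 8 final concentrations from 0.5 nM to 46 µM. CellTiter-Glo luminescence was read after 15 minutes, and IC50 was obtained from a four-parameter logistic fit of signals normalised to positive-control and DMSO wells.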

Row | Structure (SMILES) | IC50 of cell viability [µM]
1 | C/C(=C(/CCOC(=O)c1ccccc1)SS/C(CCOC(=O)c1ccccc1)=C(\C)N(C=O)Cc1cnc(C)nc1N)N(C=O)Cc1cnc(C)nc1N [Bisbentiamine] | > 46
2 | [O]=[Bi][O]C(=O)[O][Bi]=[O] [Bismuth subcarbonate] | > 46
3 | O=C1[O][Bi]([OH])[O]c2ccccc21 [Bismuth subsalicylate] | > 46
4 | CC(C)NCC(O)COc1ccc(COCCOC(C)C)cc1 (centres undefined) [Bisoprolol hemifumarate salt] | > 46
5 | CC(C)NCC(O)COc1ccc(COCCOC(C)C)cc1.CC(C)NCC(O)COc1ccc(COCCOC(C)C)cc1.O=C(O)/C=C/C(=O)O (centres undefined) [Bisoprolol hemifumarate salt] | > 46
6 | CC(=O)Oc1ccc(C2(c3ccc(OC(C)=O)cc3)Oc3ccccc3NC2=O)cc1 [Bisoxatin Acetate] | > 46
7 | CC(C)(c1ccc(O)cc1)c1ccc(O)cc1 [Bisphenol A] | > 46
8 | [O-][S+](c1cc(Cl)cc(Cl)c1O)c1cc(Cl)cc(Cl)c1O [Bithionoloxide] | > 46
9 | S=C=Nc1ccc(N=C=S)cc1 [Bitoscanate] | > 46
10 | Cc1c(N)nc([C@@H](CC(N)=O)NC[C@H](N)C(N)=O)nc1C(=O)N[C@H](C(=O)N[C@H](C)[C@H](O)[C@H](C)C(=O)N[C@@H](C(=O)NCCc1nc(-c2nc(C(=O)NCCC[S+](C)C)cs2)cs1)[C@H](C)O)[C@H](O[C@@H]1O[C@@H](CO)[C@@H](O)[C@H](O)[C@@H]1O[C@H]1O[C@H](CO)[C@H](O)[C@H](OC(N)=O)[C@@H]1O)c1c[nH]cn1 [Bleomycin Sulfate] | > 46
11 | OB(O)O [Boric acid] | > 46
12 | O=C(Nc1ccccc1-c1ccc(Cl)cc1)c1cccnc1Cl [Boscalid] | > 46
13 | COc1cc(Nc2c(C#N)cnc3cc(OCCCN4CCN(C)CC4)c(OC)cc23)c(Cl)cc1Cl [Bosutinib Methanoate] | > 46
14 | CC(C)(C)OC(=O)c1ncn2c1[C@@H]1CCCN1C(=O)c1c(Br)cccc1-2 [Bretazenil] | > 46
15 | CC[N+](C)(C)Cc1ccccc1Br.Cc1ccc(S(=O)(=O)[O-])cc1 [Bretylium tosylate] | > 46
16 | CCN[C@@H]1CN(CCCOC)[S+](=O)([O-])c2sc([S+](N)(=O)[O-])cc21 [Brinzolamide] | > 46
17 | O=C1c2ccccc2C(=O)C1c1ccc(Br)cc1 [Bromindione] | > 46
18 | CC(C)C(Br)C(=O)NC(N)=O (centres undefined) [Bromisovalum] | > 46
19 | O=C(CCCN1CCC(O)(c2ccc(Br)cc2)CC1)c1ccc(F)cc1 [Bromperidol] | > 46
20 | Cc1ccc2c(Br)cc(Br)c(O)c2n1 [Broquinaldol] | > 46
21 | CC1=NN=C2C\N=C(C3=CC=CC=C3Cl)/C4=C(SC(=C4)Br)[N]12 [Brotizolam] | > 46
22 | OC[C@H]1O[C@H](C[C@@H]1O)N2\C=C(Br)/C(=O)NC2=O [Broxuridina] | > 46

Row | Structure (SMILES) | IC50 of cell viability [µM]
23 | CCOc1ccc(NC(=O)CC(C)O)cc1 (centres undefined) [Bucetin] | > 46
24 | CC(C)(S)C(=O)NC(CS)C(=O)O (centres undefined) [Bucillamine] | > 46
25 | CC(C)(S)C(=O)N[C@H](CS)C(=O)O [Bucillamine] | > 46
26 | CC(C)(C)c1ccc(CN2CCN([C@H](c3ccccc3)c3ccc(Cl)cc3)CC2)cc1 [Buclodin] | > 46
27 | CCC[C@@H]1O[C@@H]2C[C@@H]3[C@@H]4CC\C5=C\C(=O)\C=C/[C@@]5(C)[C@H]4[C@H](O)C[C@@]3(C)[C@]2(O1)C(=O)CO [Budesonide] | > 46
28 | CCCCOc1ccc(CC(=O)NO)cc1 [Bufexamac] | > 46
29 | COc1cc(OC)c(C(=O)CCCN2CCCC2)c(OC)c1 [Buflomedil hydrochloride] | > 46
30 | CN(C)CCc1c[nH]c2ccc(O)cc12 [Bufotenine] | > 46
31 | CCCCNc1cc(C(=O)O)cc([S+](N)(=O)[O-])c1Oc1ccccc1 [Bumetanide] | > 46
32 | Cc1cc(-n2nc3ccc(Cl)cc3n2)c(O)c(C(C)(C)C)c1 [Bumetrizole] | > 46
33 | COC12CCC3(CC1[C@](C)(O)C(C)(C)C)[C@H]1Cc4ccc(O)c5c4[C@@]3(CCN1CC1CC1)C2O5 (some centres undefined) [Bupenorphine] | > 46
34 | C[C@H](NC(C)(C)C)C(=O)c1cccc(Cl)c1 [Bupropion hydrochloride] | > 46
35 | C[S+](=O)([O-])OCCCCO[S+](C)(=O)[O-] [Busulfan] | > 46
36 | CCCCN(CCCC)CCCOC(=O)c1ccc(N)cc1 [Butacaine] | > 46
37 | CCCCNC(C)(C)[PH](=O)O [Butafosfan] | > 46
38 | CCC(C(=O)OCCOCCN(CC)CC)c1ccccc1 (centres undefined) [Butamirate citrate] | > 46
39 | CN(Cc1ccc(C(C)(C)C)cc1)Cc1cccc2ccccc12 [Butenafina] | > 46
40 | OC(C#CCN1CCCC1)(c1ccccc1)c1ccccc1 [Butinolina] | > 46
41 | NCC[C@H](O)C(=O)N[C@@H]1C[C@@H](N)[C@@H](O[C@@H]2O[C@@H](CN)[C@@H](O)[C@@H](O)[C@H]2N)[C@@H](O[C@@H]2O[C@@H](CO)[C@@H](O)[C@H]2O)[C@H]1O [Butirosin disulfate salt] | > 46
42 | Clc1ccc(CC[C@H](Cn2ccnc2)Sc2c(Cl)cccc2Cl)cc1 [Butoconazole nitrate] | > 46
43 | CCCC(=O)OC(C(Cl)(Cl)Cl)P(=O)(OC)OC (centres undefined) [Butonate] | > 46
44 | CCCCOC(=O)c1ccccc1C(=O)OCc1ccccc1 [Butyl benzyl phthalate] | > 46

Row | Structure (SMILES) | IC50 of cell viability [µM]
45 | Cc1cc(C(C)(C)C)c(O)c(C(C)(C)C)c1 [Butylated hydroxytoluene] | > 46
46 | CCCCOC(=O)c1ccc(O)cc1 [Butylparaben] | > 46
47 | Cc1cc(-c2ccc(/N=N/c3ccc4c([S+](=O)([O-])O)cc([S+](=O)([O-])O)c(N)c4c3O)c(C)c2)ccc1/N=N/c1ccc2c([S+](=O)([O-])O)cc([S+](=O)([O-])O)c(N)c2c1O [C.I. Direct Blue 53] | > 46
48 | C=CCN1CC(C(=O)N(CCCN(C)C)C(=O)NCC)CC2c3cccc4[nH]cc(c34)CC21 (centres undefined) [CABERGOLINE] | > 46
49 | OC(=O)CN(CC(O)=O)CC1=CC/2=C(OC/3=C/C(=O)/C(=C\C3=C2C4=CC=CC=C4C(O)=O)CN(CC(O)=O)CC(O)=O)C=C1O [CALCEIN] | > 46
50 | O=C(Nc1ccc(C(=O)O)c(O)c1)c1ccccc1 [CALCII BENZAMIDOSALICYLAS] | > 46
51 | C=C1/C(=C\C=C2/CCC[C@]3(C)[C@@H]([C@H](C)/C=C/[C@@H](O)C4CC4)CC[C@@H]23)C[C@@H](O)C[C@@H]1O [CALCIPOTRIENE] | > 46
52 | C=C1/C(=C\C=C2/CCC[C@]3(C)[C@@H]([C@H](C)CCCC(C)(C)O)CC[C@@H]23)C[C@@H](O)C[C@@H]1O [CALCITRIOL] | > 46
53 | CC(C)(CO)C(O)C(=O)NCCCC(=O)[O-] (centres undefined) [CALCIUM HOPANTENATE] | > 46
54 | CN(C)C(=O)COC(=O)Cc1ccc(OC(=O)c2ccc(NC(=N)N)cc2)cc1 [CAMOSTAT MESILATE] | > 46
55 | C=C1[C@@H]2CC[C@H](C2)C1(C)C [CAMPHENE] | > 46
56 | C[C@@]12CCC(=O)/C=C1/C=C\C3C2CC[C@]4(C)C3CC[C@@]45CCC(=O)O5 (some centres undefined) [CANRENONE] | > 46
57 | CC1=C(/C=C/C(C)=C/C=C/C(C)=C/C=C/C=C(C)/C=C/C=C(C)/C=C/C2=C(C)C(=O)CCC2(C)C)C(C)(C)CCC1=O [CANTHAXANTHIN (euglenanone)] | > 46
58 | N=C1NCCC(C2NC(=O)/C(=C/NC(N)=O)NC(=O)C(CNC(=O)CC(N)CCCN)NC(=O)C(CO)NC(=O)C(N)CNC2=O)N1 (centres undefined) [CAPREOMYCIN SULFATE] | > 46
59 | C[C@H](CS)C(=O)N1CCC[C@H]1C(=O)O [CAPTOPRIL] | > 46
60 | CCN(CC)CCOC(=O)C1(c2ccccc2)CCCC1 [CARAMIPHEN EDISYLATE] | > 46
61 | COC(=O)N/N=C/c1c[n+]([O-])c2ccccc2[n+]1[O-] [CARBADOX] | > 46
62 | CC(C[N+](C)(C)C)OC(N)=O (stereo not drawn) [CARBAMYL-beta-METHYLCHOLINE] | > 46
63 | C[N+](C)(C)CCOC(N)=O [CARBAMYLCHOLINE] | > 46
64 | CN1C2=CC(=O)/C(=N\NC(N)=O)C=C2CC1S(=O)(=O)[O-] (centres undefined) [CARBAZOCHROME SODIUM SULFONATE] | > 46
